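1) Cells in 96-well plates. 2) Compound, 48 h, 5 concentrations. 3) Linear interpolation between surrounding doses. 4) Unreached endpoint = highest concentration. GI50: concentration for 50% inhibition of growth.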 Active and inactive are the calls of the source. No stated cut-off is given here; in the data, active = GI50 up to about 1.1 µM and inactive = higher.
Columns and labels:
Assay in all cases: DTP human tumour cell line panel, 48 h
SF-295 = system: SF-295
LOX IMVI = system: LOX IMVI
SNB-75 = system: SNB-75
SN12C = system: SN12C
NCI-H23 = system: NCI-H23
SNB-78 = system: SNB-78
IGROV-1 = system: IGROV-1
DMS-114 = system: DMS-114
RXF 393 = system: RXF 393
HCT-15 = system: HCT-15
A498 = system: A498
CAKI-1 = system: CAKI-1
ACHN = system: ACHN
DMS-273 = system: DMS-273
T47D = system: T47D
BT-549 = system: BT-549
PC-3 = system: PC-3
MDA-N = system: MDA-N
MDA-MB-435 = system: MDA-MB-435
Hs-578T = system: Hs-578T

SMILES	GI50 (SF-295)	GI50 (LOX IMVI)	GI50 (SNB-75)	GI50 (SN12C)	GI50 (NCI-H23)	GI50 (SNB-78)	GI50 (IGROV-1)	GI50 (DMS-114)	GI50 (RXF 393)	GI50 (HCT-15) [µM]	GI50 (A498)	GI50 (CAKI-1)	GI50 (ACHN)	GI50 (DMS-273)	GI50 (T47D)	GI50 (BT-549)	GI50 (PC-3)	GI50 (MDA-N)	GI50 (MDA-MB-435)	GI50 (Hs-578T)
CN(C)CCNC(=O)c1cccc2nc(-c3ccccc3)oc12	31.3 µM (inactive)	26.5 µM (inactive)	13.5 µM (inactive)	41.1 µM (inactive)	48.3 µM (inactive)	> 72.6 µM (inactive)	44 µM (inactive)	47.1 µM (inactive)	32.2 µM (inactive)	43.6	27.7 µM (inactive)									
COc1ccc(C(=O)Cc2cc(OC)ccc2OC)cc1	48.9 µM (inactive)	> 100 µM (inactive)	29 µM (inactive)	> 100 µM (inactive)	> 100 µM (inactive)	42.4 µM (inactive)	> 100 µM (inactive)	66.8 µM (inactive)	58.9 µM (inactive)	> 100	39.2 µM (inactive)	> 100 µM (inactive)	> 100 µM (inactive)	> 100 µM (inactive)						
O=C(O)C12CC3CC(C1)C2C=C3P(=O)(O)O (stereo not drawn)	> 100 µM (inactive)	> 100 µM (inactive)	> 100 µM (inactive)	> 100 µM (inactive)	> 100 µM (inactive)		> 100 µM (inactive)	> 100 µM (inactive)	> 100 µM (inactive)	> 100		> 100 µM (inactive)	> 100 µM (inactive)	> 100 µM (inactive)						
CC1(C)CC2(CC(C)(C)N1O)NC(=O)OC2=O	> 100 µM (inactive)	> 100 µM (inactive)	> 67.3 µM (inactive)	> 100 µM (inactive)	> 100 µM (inactive)	> 100 µM (inactive)	> 100 µM (inactive)	> 100 µM (inactive)	> 100 µM (inactive)	> 100	> 100 µM (inactive)	> 100 µM (inactive)		> 100 µM (inactive)						
CN1CN(C(=O)N2CN(C)C(=O)N(C)C2)CN(C)C1=O	> 100 µM (inactive)	> 100 µM (inactive)	> 100 µM (inactive)	> 100 µM (inactive)		> 100 µM (inactive)	> 100 µM (inactive)	> 100 µM (inactive)		> 100	> 100 µM (inactive)	> 100 µM (inactive)	> 100 µM (inactive)							
O=C(/N=N/c1cc(Cl)ccc1Cl)NNc1cc(Cl)ccc1Cl	22.8 µM (inactive)		28.4 µM (inactive)	21.4 µM (inactive)	18.1 µM (inactive)		19 µM (inactive)		11.1 µM (inactive)	16.5	26.9 µM (inactive)	16 µM (inactive)			10.5 µM (inactive)	> 10 µM (inactive)	10.9 µM (inactive)	25.4 µM (inactive)	13.7 µM (inactive)	25.5 µM (inactive)
CC(=O)OC1CC2(O)C(CCC3(C)C(c4ccc(=O)oc4)CCC32O)C2(C)CCC(O)C=C12 (stereo not drawn)	0.00955 µM (active)	0.0191 µM (active)	0.0317 µM (active)	0.00462 µM (active)	0.00246 µM (active)	0.00989 µM (active)	0.0195 µM (active)	0.00116 µM (active)	0.0375 µM (active)	0.0239	0.0428 µM (active)	0.0375 µM (active)		0.005 µM (active)						
CC(=O)OC1CC[C@@]2(C)C(=CC[C@@H]3[C@@H]2CC[C@]2(C)Nc4nn(S(C)(=O)=O)cc4C[C@@H]32)C1 (stereo partly drawn)	34 µM (inactive)		24.2 µM (inactive)	59.7 µM (inactive)	35.1 µM (inactive)		73.6 µM (inactive)		18.6 µM (inactive)	24.2	> 100 µM (inactive)	40.1 µM (inactive)			14.2 µM (inactive)	20.3 µM (inactive)	28.2 µM (inactive)	29 µM (inactive)	20 µM (inactive)	67 µM (inactive)
CCOC(=O)C1=NN(c2ccccc2)C2=CC(C)=NN(C)C(=S)N21	> 100 µM (inactive)	> 100 µM (inactive)	> 100 µM (inactive)	> 100 µM (inactive)	> 100 µM (inactive)		> 100 µM (inactive)		> 100 µM (inactive)	> 100		> 100 µM (inactive)	> 100 µM (inactive)		> 100 µM (inactive)	> 100 µM (inactive)	> 100 µM (inactive)	> 100 µM (inactive)	> 100 µM (inactive)	> 100 µM (inactive)
CCP(=S)(CC)CCl	> 100 µM (inactive)	> 100 µM (inactive)	> 100 µM (inactive)	> 100 µM (inactive)	> 100 µM (inactive)		> 100 µM (inactive)			> 100		> 100 µM (inactive)	> 100 µM (inactive)		> 100 µM (inactive)		> 100 µM (inactive)	> 100 µM (inactive)		> 100 µM (inactive)

Source: ChEMBL document CHEMBL1201862, “PubChem BioAssay data set” (2004)
